From ChEMBL document CHEMBL5727875, “Substituted bicycle heterocyclic derivatives useful as ROMK channel inhibitors” (2020) come the findings set out here.

What is called IC50 is the concentration that gives 50% inhibition.

SMILES strings stand for the structures.

This test deals with T1, ATP-sensitive inward rectifier potassium channel 1 (Homo sapiens, UniProt P48048).
T1 sequence (P48048 whole entry): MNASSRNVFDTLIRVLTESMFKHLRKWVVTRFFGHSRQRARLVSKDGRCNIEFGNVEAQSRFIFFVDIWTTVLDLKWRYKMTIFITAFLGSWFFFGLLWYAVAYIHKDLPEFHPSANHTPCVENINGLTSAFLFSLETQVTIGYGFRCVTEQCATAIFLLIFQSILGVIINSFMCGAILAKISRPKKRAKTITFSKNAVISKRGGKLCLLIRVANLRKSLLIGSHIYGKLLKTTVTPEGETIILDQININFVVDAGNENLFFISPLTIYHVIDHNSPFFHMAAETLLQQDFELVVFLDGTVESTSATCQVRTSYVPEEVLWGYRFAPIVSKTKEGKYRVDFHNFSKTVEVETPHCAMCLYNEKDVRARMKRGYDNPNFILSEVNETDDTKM
Nature of the test: Electrophysiology Assay: The coverslip plated with cells was placed in the experiment chamber perfused with bath solution composed of (in mM): 135 NaCl, 5 KCl, 2 CaCl2), 1 MgCl2, 10 HEPES, 5 Glucose (pH 7.4). Patch pipettes with resistance between 2-5 Megaohms, when filled with a solution containing (in mM): 135 KCl, 1 EGTA, 1 MgCl2, 10 HEPES, 2 Na2ATP (pH 7.3), were used to form gigaseals. The ….

As to `Cc1c([C@@H](O)CNCc2cnn(-c3ccc4oc(=O)n(C)c4c3)c2)ccc2c1COC2=O`, 12 nM corresponded to half-maximal inhibition (IC50).
